Earlier results in patent US9730930B2, “Treatment for vitiligo” (Rigel Pharmaceuticals, Inc., priority 2012, dated 2017).

Tested on: other cytokine (IL-1β and TNFα) signaling

Compound: C#CCOc1ccc(Nc2nc(Nc3ccc(C)c(S(N)(=O)=O)c3)ncc2F)cc1 [Compound I, N2-(3-aminosulfonyl-4-methylphenyl)-5-fluoro-N4-[4-(prop-2-ynyloxy)phenyl]-2,4-pyrimidinediamine]
- activity on other cytokine (IL-1β and TNFα) signaling: little or no activity
